Assay results published in PubChem BioAssay (NCI).
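96-well plates; 48 h exposure; 5 concentrations. Endpoints by linear interpolation between flanking doses. Not reached: highest tested concentration assigned. Abbreviation: GI50, concentration required for 50% inhibition of growth. TGI denotes the concentration required for complete inhibition of growth.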

Key:
Assay in all cases: growth of human tumour cells (NCI), 48 h
[1] = test system: 786-0 renal
[2] = test system: A498 renal
[3] = test system: A549 NSCLC
[4] = test system: ACHN renal
[5] = test system: BT-549 breast
[6] = test system: CAKI-1 renal
[7] = test system: CCRF-CEM leukemia
[8] = test system: COLO 205 colon
[9] = test system: DU-145 prostate
[10] = test system: EKVX NSCLC
[11] = test system: HCC-2998 colon
[12] = test system: HCT-116 colon
[13] = test system: HCT-15 colon
[14] = test system: HL-60(TB) leukemia
[15] = test system: HOP-62 NSCLC
[16] = test system: HOP-92 NSCLC
[17] = test system: HS 578T breast
[18] = test system: HT29 colon
[19] = test system: IGROV1 ovarian
[20] = test system: K-562 leukemia
[21] = test system: KM12 colon
[22] = test system: LOX IMVI melanoma
[23] = test system: M14 melanoma
[24] = test system: MALME-3M melanoma
[25] = test system: MCF7 breast
[26] = test system: MDA-MB-231 breast
[27] = test system: MDA-MB-435
[28] = test system: MDA-MB-468 breast
[29] = test system: MOLT-4 leukemia
[30] = test system: NCI-H226 lung
[31] = test system: NCI-H23 lung
[32] = test system: NCI-H460 lung
[33] = test system: NCI-H522 lung
[34] = test system: OVCAR-3 ovarian
[35] = test system: OVCAR-4 ovarian
[36] = test system: OVCAR-5 ovarian
[37] = test system: OVCAR-8 ovarian
[38] = test system: PC-3 prostate
[39] = test system: RPMI-8226 leukemia
[40] = test system: RXF 393 renal
[41] = test system: SF-268 CNS
[42] = test system: SF-295 CNS
[43] = test system: SF-539 CNS
[44] = test system: SK-MEL-2 melanoma
[45] = test system: SK-MEL-28 melanoma
[46] = test system: SK-MEL-5 melanoma
[47] = test system: SK-OV-3 ovarian
[48] = test system: SN12C renal
[49] = test system: SNB-19 CNS
[50] = test system: SNB-75 CNS
[51] = test system: SR leukemia
[52] = test system: SW-620 colon
[53] = test system: T-47D breast
[54] = test system: TK-10 renal
[55] = test system: U251 CNS
[56] = test system: UACC-257 melanoma
[57] = test system: UACC-62 melanoma
[58] = test system: UO-31 renal

## CC1=C(C)C(=O)C(NCCN2CCOCC2)=C(Br)C1=O
[1]
  GI50: 17.8 µM
  TGI: 32.1 µM
[2]
  GI50: 19.2 µM
  TGI: 34 µM
[3]
  GI50: 17.4 µM
  TGI: 34 µM
[4]
  GI50: 13.8 µM
  TGI: 26.8 µM
[5]
  GI50: 13.7 µM
  TGI: 26.6 µM
[6]
  GI50: 10.7 µM
  TGI: 23.3 µM
[7]
  GI50: 3.44 µM
  TGI: > 100 µM
[8]
  GI50: 17.9 µM
  TGI: 33.6 µM
[9]
  GI50: 12.7 µM
  TGI: 25.7 µM
[10]
  GI50: 12.8 µM
  TGI: 25.9 µM
[11]
  GI50: 15.3 µM
  TGI: 28.7 µM
[12]
  GI50: 2.93 µM
  TGI: 10.9 µM
[13]
  GI50: 15.9 µM
  TGI: 30.9 µM
[14]
  GI50: 2.46 µM
  TGI: 7.24 µM
[15]
  GI50: 14.6 µM
  TGI: 28.1 µM
[16]
  GI50: 13.3 µM
  TGI: 28 µM
[17]
  GI50: 9.04 µM
  TGI: 34.6 µM
[18]
  GI50: 16 µM
  TGI: 31.3 µM
[19]
  GI50: 10.5 µM
  TGI: 22.9 µM
[20]
  GI50: 3.3 µM
  TGI: 61.9 µM
[21]
  GI50: 16.7 µM
  TGI: 39.6 µM
[22]
  GI50: 2.33 µM
  TGI: 8.36 µM
[23]
  GI50: 13.6 µM
  TGI: 26.7 µM
[24]
  GI50: 2.25 µM
  TGI: 5.37 µM
[25]
  GI50: 3.66 µM
  TGI: 15.2 µM
[26]
  GI50: 5.65 µM
  TGI: 18.7 µM
[27]
  GI50: 1.81 µM
  TGI: 3.35 µM
[28]
  GI50: 0.222 µM
  TGI: 0.885 µM
[29]
  GI50: 5.35 µM
  TGI: 32.8 µM
[30]
  GI50: 12.1 µM
  TGI: 26.7 µM
[31]
  GI50: 3.84 µM
  TGI: 16.3 µM
[32]
  GI50: 16.1 µM
  TGI: 34.2 µM
[33]
  GI50: 3.01 µM
  TGI: 11.7 µM
[34]
  GI50: 2.1 µM
  TGI: 7.16 µM
[35]
  GI50: 5.02 µM
  TGI: 17.6 µM
[36]
  GI50: 6.43 µM
  TGI: 19.3 µM
[37]
  GI50: 3.84 µM
  TGI: 15.8 µM
[38]
  GI50: 16.9 µM
  TGI: 50.6 µM
[39]
  GI50: 13.9 µM
  TGI: 55 µM
[40]
  GI50: 12.7 µM
  TGI: 25.3 µM
[41]
  GI50: 12.8 µM
  TGI: 32 µM
[42]
  GI50: 17.8 µM
  TGI: 31.9 µM
[43]
  GI50: 17 µM
  TGI: 31.5 µM
[44]
  GI50: 11.7 µM
  TGI: 24.2 µM
[45]
  GI50: 14.5 µM
  TGI: 28 µM
[46]
  GI50: 11.6 µM
  TGI: 23.8 µM
[47]
  GI50: 12.5 µM
  TGI: 25.2 µM
[48]
  GI50: 14.9 µM
  TGI: 28.2 µM
[49]
  GI50: 16.3 µM
  TGI: 30.5 µM
[50]
  GI50: 18.5 µM
  TGI: 34.2 µM
[51]
  GI50: 19.2 µM
  TGI: 66.7 µM
[52]
  GI50: 2.94 µM
  TGI: 14 µM
[53]
  GI50: 2.01 µM
  TGI: 4.74 µM
[54]
  GI50: 19.2 µM
  TGI: 33.3 µM
[55]
  GI50: 12 µM
  TGI: 25.2 µM
[56]
  GI50: 2.55 µM
  TGI: 7 µM
[57]
  GI50: 5.78 µM
  TGI: 18.4 µM
[58]
  GI50: 11 µM
  TGI: 23.2 µM
